Kd data for 1 substance are collected here from article PMC6089346 (Journal of the American Chemical Society, 2015).

Test [1] has as its target human PARG (Homo sapiens, UniProt Q86W56, E756N). Put plainly: fluorescence polarization direct binding.
For test [2], the target named is human PARG (Homo sapiens, UniProt Q86W56, E755N). Put plainly: fluorescence polarization direct binding.

Usually Kd stands for a measure of binding affinity in units of concentration. A high value points to lower affinity.

Sequence of human PARG (Homo sapiens, UniProt Q86W56, E756N) (Q86W56 whole entry E756N): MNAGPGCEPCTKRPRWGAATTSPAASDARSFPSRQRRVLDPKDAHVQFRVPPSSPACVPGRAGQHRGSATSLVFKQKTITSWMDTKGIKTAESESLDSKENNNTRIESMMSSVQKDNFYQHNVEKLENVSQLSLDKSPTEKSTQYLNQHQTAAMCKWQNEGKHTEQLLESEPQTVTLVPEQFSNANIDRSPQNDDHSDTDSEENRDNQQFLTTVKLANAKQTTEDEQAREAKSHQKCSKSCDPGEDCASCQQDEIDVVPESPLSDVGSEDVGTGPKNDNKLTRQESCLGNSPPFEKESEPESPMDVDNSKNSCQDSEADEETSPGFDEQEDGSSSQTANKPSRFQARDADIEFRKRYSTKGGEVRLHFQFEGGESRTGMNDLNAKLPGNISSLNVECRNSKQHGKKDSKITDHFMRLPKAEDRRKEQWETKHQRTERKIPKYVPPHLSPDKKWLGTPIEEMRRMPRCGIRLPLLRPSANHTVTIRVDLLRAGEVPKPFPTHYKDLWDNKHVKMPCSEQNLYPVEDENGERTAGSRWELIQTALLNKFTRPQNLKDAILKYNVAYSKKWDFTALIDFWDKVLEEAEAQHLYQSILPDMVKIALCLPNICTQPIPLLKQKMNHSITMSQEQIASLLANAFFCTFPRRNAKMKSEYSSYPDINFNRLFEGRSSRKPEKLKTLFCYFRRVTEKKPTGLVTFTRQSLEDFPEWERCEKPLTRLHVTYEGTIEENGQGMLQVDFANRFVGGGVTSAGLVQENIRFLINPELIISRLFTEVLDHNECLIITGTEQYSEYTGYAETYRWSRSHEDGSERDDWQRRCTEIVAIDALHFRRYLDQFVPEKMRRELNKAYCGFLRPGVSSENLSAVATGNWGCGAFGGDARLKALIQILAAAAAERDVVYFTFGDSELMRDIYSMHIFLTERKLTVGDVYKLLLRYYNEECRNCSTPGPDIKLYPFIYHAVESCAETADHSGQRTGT
Sequence of human PARG (Homo sapiens, UniProt Q86W56, E755N) (Q86W56 whole entry E755N): as the sequence (Q86W56 whole entry E756N) above, with E755N, N756E counted along it

For the substance Cy3 ADP-ribose dimer [compound 22], the Kd worked out at 83 ± 7 nM on human PARG [1] and 208 ± 14 nM on human PARG [2].
